Test results published in paper PMC6514686, “Tri-Cyclic Nucleobase Analogs and Their Ribosides as Substrates of Purine-Nucleoside Phosphorylases. II Guanine and Isoguanine Derivatives” (Molecules, 2019).
Where two headings read alike, the source gives them in different places.

Legend:
[1] = ionization constants (spectrophotometric titrations)
[2] = target: T1, E.coli PNP-wt (purine-nucleoside phosphorylase) (Escherichia coli, UniProt P0ABP8); assay: enzymatic ribosylation of nucleobase analogs by α-D-ribose-1-phosphate, E. coli PNP wild type; type: biochemical; settings: for Vmax (relative): relative to Vmax of guanine ribosylation under the same conditions (=100), 40 mM HEPES, pH 7, error ~10%
T1 construct: made in house; host or cells: E. coli
T1 sequence (P0ABP8 2-239 limits assumed): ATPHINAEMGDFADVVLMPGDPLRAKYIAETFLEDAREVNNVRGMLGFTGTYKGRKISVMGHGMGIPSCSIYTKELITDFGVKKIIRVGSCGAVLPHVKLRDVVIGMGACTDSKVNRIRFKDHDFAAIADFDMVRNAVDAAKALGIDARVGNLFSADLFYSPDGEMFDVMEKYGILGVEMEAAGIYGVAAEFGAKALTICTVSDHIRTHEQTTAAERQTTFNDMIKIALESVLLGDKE
Experimental: (§1) […] 0.5 mM R1P as a ribose source. On a larger scale, reactions were run in Eppendorf tubes, volume 2–3 mL, using either R1P or 7-methylguanosine as ribose sources. Phosphorolysis reactions were run in 50 mM phosphate buffer, pH 7.0 or 6.5. Data were analyzed by standard methods (see Supplementary Materials).
(§2) Recombinant E. coli and calf spleen PNPs as well as their mutated forms were expressed in E. coli and purified according to the procedures described earlier.

[3] = target: T2, calf PNP-wt (calf spleen purine-nucleoside phosphorylase) (Bos taurus, UniProt P55859); assay: enzymatic ribosylation by α-D-ribose-1-phosphate, calf PNP wild type; type: biochemical; settings: for Vmax (relative): relative to Vmax of guanine ribosylation under the same conditions (=100), 40 mM HEPES, pH 7, error ~10%
T2 construct: made in house; host or cells: E. coli
T2 sequence (P55859 1-289): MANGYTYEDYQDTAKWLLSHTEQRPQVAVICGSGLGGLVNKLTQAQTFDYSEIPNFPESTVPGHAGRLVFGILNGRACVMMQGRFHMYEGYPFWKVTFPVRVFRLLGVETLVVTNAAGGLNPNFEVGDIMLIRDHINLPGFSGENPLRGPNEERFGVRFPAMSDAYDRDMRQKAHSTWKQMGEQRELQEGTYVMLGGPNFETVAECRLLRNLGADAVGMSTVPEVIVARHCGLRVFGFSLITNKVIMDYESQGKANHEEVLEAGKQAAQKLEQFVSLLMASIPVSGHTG
Experimental: (§3) For kinetic analyses, enzymatic ribosylation reactions were carried out in 1 mL cuvettes (pathlength 4 mm) in ~50 mM HEPES buffer, pH 7.3, using ca. 0.5 mM R1P as a ribose source. On a larger scale, reactions were run in Eppendorf tubes, volume 2–3 mL, using either R1P or 7-methylguanosine as ribose sources. Phosphorolysis reactions were run in 50 mM phosphate buffer, pH 7.0 or 6.5. Data were analyzed by standard methods (see Supplementary Materials).
as §2

calf PNP [4] = target: T3, calf PNP (Bos taurus, UniProt P55859); assay: inhibition of guanine ribosylation catalyzed by calf PNP; type: biochemical; settings: similar conditions as with E. coli PNP
T3 construct: made in house; host or cells: E. coli
T3 sequence (P55859 1-289): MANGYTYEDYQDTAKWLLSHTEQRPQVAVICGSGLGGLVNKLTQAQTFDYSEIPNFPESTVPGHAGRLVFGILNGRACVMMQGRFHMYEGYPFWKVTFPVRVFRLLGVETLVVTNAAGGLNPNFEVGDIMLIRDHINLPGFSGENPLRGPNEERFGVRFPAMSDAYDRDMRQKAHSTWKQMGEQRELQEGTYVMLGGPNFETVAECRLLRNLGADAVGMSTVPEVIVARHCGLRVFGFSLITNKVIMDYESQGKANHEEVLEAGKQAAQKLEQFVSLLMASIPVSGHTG
Experimental: (§4) N^2,3-etheno-O^6-methylguanine (3) effectively competes with guanine in the ribosylation process, acting as quasi inhibitor of the E. coli PNP, with estimated Kiapp value 7.5 ± 0.8 μM (competitive model; average of 3 determinations), in agreement with the Km value, estimated from kinetic data (see the previous paragraph).
as §3

E. coli PNP [5] = target: T4, E. coli PNP (Escherichia coli, UniProt P0ABP8); assay: inhibition of guanine ribosylation catalyzed by E. coli PNP; type: biochemical
T4 construct: made in house; host or cells: E. coli
Experimental: We conclude that inability of the enzyme to ribosylate (2) is not due to geometric hindrance, but rather should be ascribed to unfavorable energetic factors, in accordance with previous reports about the relative instability of the glycosidic bond in this compound [23].
as §4, §3

E. coli PNP [6] = target: T4, E. coli PNP; design: method as in PMID 29376769; settings: cited from earlier work
calf PNP [7] = target: T3, calf PNP; design: method as in PMID 29376769; settings: cited from earlier work
E. coli PNP [8] = target: T4, E. coli PNP; assay: phosphorolysis of nucleosides in phosphate buffer by E. coli PNP; type: biochemical; settings: for phosphorolysis (in words): 50 mM phosphate buffer, pH 6.5
Experimental: as §3

calf PNP [9] = target: T3, calf PNP; assay: phosphorolysis of nucleosides in phosphate buffer by calf PNP; type: biochemical
Experimental: as §3

E.coli PNP-mutantD204N = target: T5, E.coli PNP-mutantD204N (Escherichia coli, UniProt P0ABP8, D205N); assay: enzymatic ribosylation by α-D-ribose-1-phosphate, E. coli PNP D204N mutant; type: biochemical; settings: for Vmax (relative): relative to Vmax of guanine ribosylation under the same conditions (=100), 40 mM HEPES, pH 7, error ~10%
T5 construct: made in house; host or cells: E. coli
T5 sequence (P0ABP8 2-239 D205N): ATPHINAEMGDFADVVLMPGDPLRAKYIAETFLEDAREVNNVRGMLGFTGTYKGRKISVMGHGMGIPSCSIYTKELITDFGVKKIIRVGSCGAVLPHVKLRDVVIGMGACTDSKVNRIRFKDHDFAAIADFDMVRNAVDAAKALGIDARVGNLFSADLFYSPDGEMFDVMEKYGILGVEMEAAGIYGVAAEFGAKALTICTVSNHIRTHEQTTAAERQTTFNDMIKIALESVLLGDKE
Experimental: as §3, §2

calf PNP-mutantN243D = target: T6, calf PNP-mutantN243D (Bos taurus, UniProt P55859, N243D); assay: enzymatic ribosylation by α-D-ribose-1-phosphate, calf PNP N243D mutant; type: biochemical
T6 construct: made in house; host or cells: E. coli
T6 sequence (P55859 1-289 N243D): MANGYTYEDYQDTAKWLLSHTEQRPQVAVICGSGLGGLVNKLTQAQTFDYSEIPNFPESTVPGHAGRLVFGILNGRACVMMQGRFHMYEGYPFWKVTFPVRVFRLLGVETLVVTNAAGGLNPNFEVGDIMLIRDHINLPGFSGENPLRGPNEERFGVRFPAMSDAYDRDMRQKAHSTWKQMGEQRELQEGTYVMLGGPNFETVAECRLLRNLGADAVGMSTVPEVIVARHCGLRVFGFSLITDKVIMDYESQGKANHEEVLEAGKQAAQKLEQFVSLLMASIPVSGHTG
Experimental: as §3, §2

[10] = substrate: O=c1c2[nH]cnc2nc2[nH]ccn12; assay: enzymatic ribosylation of nucleobase analogs by α-D-ribose-1-phosphate, E. coli PNP wild type; type: biochemical; settings: other: ribosylation, 40 mM HEPES buffer, pH 7, α-D-ribose-1-phosphate, standard errors ~15%
Experimental: as §1, §2

[11] = aqueous, pKa ±0.1, lower (basic) value, protonation to the cation
[12] = aqueous, pKa ±0.1, upper (acidic) value, deprotonation to the monoanion
[13] = no reaction traces even with 10-fold higher enzyme concentrations
[14] = 40 mM HEPES buffer, pH 7, α-D-ribose-1-phosphate

Q: For `COc1nc2nccn2c2[nH]cnc12` [N^2,3-etheno-O^6-methylguanine], which pKa [1, 11] is on record?
A: ~3.5

Q: What about the pKa [1, 12] of the same molecule?
A: ~9

Q: What about the “Vmax (relative)” value [2] of the same molecule?
A: ~0.3

Q: What about the “Vmax (relative)” value [3] of the same molecule?
A: <0.1

Q: What about the “inhibition of guanine ribosylation (in words)” value (calf PNP [4]) of the same molecule?
A: no such inhibition is observed

Q: What about the Ki (E. coli PNP [5]; competition with guanine in ribosylation, competitive model, average of 3 determinations, read-out: estimated Kiapp) of the same molecule?
A: 7.5 ± 0.8 µM

Q: Which results are given for `OC[C@H]1O[C@@H](n2cnc3c2ncn2ccnc32)[C@H](O)[C@@H]1O` [1,N^6-ethenoadenosine]?
A: phosphorolysis (in words) (E. coli PNP [6]): rapidly phosphorolysed; phosphorolysis (in words) (calf PNP [7]): resistant

Q: With “1,N^6-etheno-N7-β-D-ribosylisoguanosine [N7-riboside (6)]” as the molecule, how does the “phosphorolysis (in words)” value (E. coli PNP [8]) read?
A: Even more rapid

Q: What does the source list for `O=c1nc2[nH]ccn2c2nc[nH]c12` [N^2,3-ethenoguanine]?
A: pKa [1, 11]: ~2.5; pKa [1, 12]: 8.8; substrate activity in ribosylation (in words) [2, 13]: not a substrate; Vmax (relative) [2]: <0.1; substrate activity in ribosylation (in words) [3, 13]: not a substrate; Vmax (relative) [3]: <0.1; Ki (E. coli PNP [5]; guanine as substrate of the ribosylation reaction, possibly competitive inhibition, read-out: estimated Ki): 38 µM

Q: Which “phosphorolysis (in words)” value (E. coli PNP [8]) does the source give for “1,N^6-etheno-N^6-β-D-ribosylisoguanosine [N^6-riboside (7)]” here?
A: much more rapidly

Q: What about the “phosphorolysis (in words)” value (calf PNP [9]) of the same molecule?
A: only slowly deribosylated

Q: For `Nc1nc(=O)[nH]c2c1ncn2[C@@H]1O[C@H](CO)[C@@H](O)[C@H]1O` [isoguanosine, reference compound], which “Vmax of phosphorolysis, fold lower than that for guanosine” value (E. coli PNP [8]; data not shown) is on record?
A: ca. 40 fold

Q: And the “phosphorolysis (in words)” value (calf PNP [9])?
A: did not see any such reaction

Q: What does the source list for `O=c1[nH]c2c(ncn2[C@@H]2O[C@H](CO)[C@@H](O)[C@H]2O)c2nccn12` [N9-riboside (5), 1,N^6-etheno-N9-β-D-ribosylisoguanosine]?
A: pKa [1, 11]: 2.4; pKa [1, 12]: 7.1; phosphorolysis (in words) (E. coli PNP [8]): fairly rapid; phosphorolysis (in words) (calf PNP [9]): not phosphorolysed

Q: What does the source list for `O=c1c2ncn([C@@H]3O[C@H](CO)[C@@H](O)[C@H]3O)c2nc2[nH]ccn12` [1,N^2-ethenoguanosine]?
A: pKa [1, 12]: 8.8; phosphorolysis (in words) (calf PNP [9]): no marked phosphorolysis

Q: Which results are given for 1,N^6-ethenoisoguanine?
A: Vmax (relative) (E.coli PNP-mutantD204N): >5; pKa ±0.1, lower (basic) value ([1]; aqueous, protonation to the cation): 3.5; fitted pKa, lower (basic) value ([1]; spectrophotometric titration, pH 2.9 to 5.5, ±0.2 (Figure S2)): 3.5; fitted pKa, upper (acidic) value ([1]; spectrophotometric titration, pH 6.25 to 11.5, ±0.2 (Figure S2)): 8.1; pH of probable second deprotonation ([1]; spectrophotometric titrations): ~ 13; Approximate Product Ratio: N9: N7-riboside: N^6-riboside (calf PNP-mutantN243D; [14]): predominantly N^6; Vmax (relative) (calf PNP-mutantN243D; relative to Vmax of guanine ribosylation under the same conditions (=100), 40 mM HEPES, pH 7, error ~10%): ~1; Km ([2]; 50 mM HEPS buffer, pH 7.3, R1P 0.5 mM, 25 °C (Figure S3), read-out: Km from double-reciprocal plots): 98 µM; Vmax (relative) [2]: ~24; Km ([2]; ribosylation, 40 mM HEPES buffer, pH 7, α-D-ribose-1-phosphate, standard errors ~15%, read-out: Km): 98 µM; Vmax (relative) [3]: 1.6; Km ([3]; ribosylation, 40 mM HEPES buffer, pH 7, α-D-ribose-1-phosphate, standard errors ~15%): ~160 µM

Q: Which “Approximate Product Ratio: N9: N7-riboside: N^6-riboside” value (“Approximate Product Ratio: N9” below) (E.coli PNP-mutantD204N; [14]) does the source give for `O=c1c2nc[nH]c2[nH]c2nccn12` [1,N^2-ethenoguanine, 5,9-dihydro-9-oximidazo{1,2-a}purine] here?
A: predominantly N9

Q: And the “Vmax (relative)” value (E.coli PNP-mutantD204N)?
A: >15

Q: What about the pKa [1, 11] of the same molecule?
A: ~2

Q: And the pKa [1, 12]?
A: ~9.5

Q: What about the “ribosylation rate, fold slower than the ribosylation of guanine” value (calf PNP-mutantN243D; pH 7.3, HEPES buffer, 25 °C) of the same molecule?
A: ca. 100 fold

Q: What about the “Approximate Product Ratio: N9” value [2, 14] of the same molecule?
A: predominantly N9

Q: What about the “Vmax (relative)” value [2] of the same molecule?
A: 18

Q: And the “share of the one main product in the reaction mixture (HPLC)” value ([2]; ribosylation, product identical to the chemically generated nucleoside)?
A: > 95%

Q: And the “Approximate Product Ratio: N9” value [3, 14]?
A: predominantly N9

Q: What about the “ribosylation rate, fold slower than the ribosylation of guanine” value ([3]; pH 7.3, HEPES buffer, 25 °C) of the same molecule?
A: ca. 100 fold

Q: And the “Vmax (relative)” value [3]?
A: <0.5

B1: E.coli PNP-wt (purine-nucleoside phosphorylase) (Escherichia coli K-12) (protein)
chain: ATPHINAEMGDFADVVLMPGDPLRAKYIAETFLEDAREVNNVRGMLGFTGTYKGRKISVMGHGMGIPSCSIYTKELITDFGVKKIIRVGSCGAVLPHVKLRDVVIGMGACTDSKVNRIRFKDHDFAAIADFDMVRNAVDAAKALGIDARVGNLFSADLFYSPDGEMFDVMEKYGILGVEMEAAGIYGVAAEFGAKALTICTVSDHIRTHEQTTAAERQTTFNDMIKIALESVLLGDKE
notes: made in house; host or cells: E. coli
Q: With B1 as the molecule, how does the Km [10] read?
A: 48 µM
